This note sets out measurements from patent US20050004029A1, “Methods and compositions for treating vascular leak using hepatocyte growth factor” (priority 2001, published 2005).

In test [1] the test system is Human pulmonary artery endothelial cells. Description: Transendothelial electrical resistance (TER) of human pulmonary artery endothelial cell monolayers. The format is cell-based. Conditions: then HGF 20 ng/ml; for effect on HGF-induced increases in TER, in words: pretreatment LY294002 25 μM, UO126 10 μM, SB203580 20 μM, Ro-31-2880 10 μM. The procedure:
(§1) Bovine pulmonary artery endothelial cells were purchased from the American Type Culture Collection (ATCC®, Rockville, Md.) and utilized at passage 19-24. Cells were maintained in Medium 199 (Life Technologies, Rockville, Md.) supplemented with 20% (v/v) colostrum-free bovine serum (CFBS) (Irvine Scientific, Santa Ana, Calif.), 15 μg/ml endothelial cell growth supplement (Upstate Biotechnology, Lake Placid, N.Y.), 1% antibiotic and antimycotic, and 0.1 mM non-essential amino acids (Life Technologies). Human pulmonary artery endothelial cells were purchased from Clonetics (Walkersville, Md.), cultured in EBM-2 complete medium (Clonetics) and utilized at passage 5-10. Human alveolar epithelial cells (A549) were purchased from ATCC® and cultured in the same medium as the bovine endothelial cells, except that the endothelial cell growth supplement was omitted. All cells were maintained at 37° C. in a humidified atmosphere of 5% CO2 and 95% air. Both endothelial cell types grew to contact-inhibited monolayers with the typical cobblestone morphology (Garcia, J. G. N. et al. (1995) J. Cell. Physiol. 163:510-522; Liu, F. et al. (2001) Am. J. Respir. Cell. Mol. Biol. 24:711-719).
Electrical resistance of EC monolayers was measured using electrical cell impedance sensor system (Applied Biophysics Inc., Troy, N.Y.) as described in Garcia, J. G. N. et al. (2000) J. Appl. Physiol. 89:2333-2343. Cells grown on gold microelectrodes (10^−3 cm^2) in polycarbonate wells act as insulating particles, and the resistance across the monolayers (transendothelial electrical resistance, or TER) is measured in real time. As cells adhere on the microelectrode and intercellular cell contacts are formed or in response to agents which increase junctional integrity, the TER increases (Garcia, J. G. N. et al. (2001) J. Clin. Invest. 108:689-711). In contrast, cell retraction, rounding, or loss of adhesion is reflected by decreases in TER (Garcia, J. G. N. et al. (2000) J. Appl. Physiol. 89:2333-2343). These measurements provide a highly sensitive biophysical assay that indicates the state of cell shape, focal adhesion, and endothelial barrier function (Giaever, I. and Keese, C. R. (1993) Nature 366:591-592; Tiruppathi, C. et al. (1992) Proc. Natl. Acad. Sci. USA 89:7919-7923). All electrical resistance data are presented as normalized values. Briefly, current was applied across the electrodes by a 4000 Hz AC voltage source with an amplitude of 1 V in series with a 1 MΩ resistance to approximate a constant current source (−1 μA). The small gold electrode and the larger counter electrode (1 cm^2) were connected to a phase-sensitive lock-in amplifier (5301A; EG&G Instruments Corp, Princeton, N.J.) with a built in differential preamplifier (5316A; EG&G Instruments Corp.). The in-phase and out-of-phase voltages between the electrodes were monitored in real time with the lock-in amplifier and converted to scalar measurements of transendothelial impedance, of which resistance was the primary focus. Transendothelial electrical resistance was monitored for 30 min to establish a baseline resistance (Ro) which, for human lung endothelium, was typically between 8 to 12×10^3 Ω (wells with R0<7×10^3 Ω or R0 >15×10^3 Ω were rejected). For some experiments, total TER was vectorially resolved into components reflecting resistance to current flow beneath the cell layer (α) and resistance to current flow between adjacent cells (Rb) as described in Garcia et al. (2000) supra utilizing the method of Giaiver and Keese which models the endothelial monolayer mathematically (Giaever, I. and Keese, C. R. (1993) Nature 366:591-592). Thus, changes in α reflect alterations in the net state of cell-matrix adhesion, whereas changes in Rb reflect alterations in the integrity of cell-cell adhesion. TER values from each microelectrode were pooled at discrete time points and plotted versus time as the mean±standard error of the mean (Garcia et al. (2000) supra). […]

Test [2] deals with human endothelial monolayers. Description: F-actin immunofluorescent microscopy (cortical actin ring). Conditions: LY294002 25 μM, 1 hr or SB203580 20 μM, 30 min; HGF 20 ng/ml. Type of test: cell-based. The procedure:
Endothelial cell monolayers grown on gelatinized cover slips were rinsed with M199 and incubated with agonists in the same medium in a 37° C. incubator (5% CO2). Monolayers were then rinsed with PBS (3×2 min), fixed in 4% paraformaldehyde for 10 min, again rinsed with PBS (3×2 min), and permeabilized with 0.25% Triton X-100 for 5 min. Cells were then washed briefly with PBS (3×2 min), blocked with PBS containing 2% BSA for 30 min and incubated with 1 Unit/mL of Texas Red-X phalloidin (Molecular Probes, Eugene, Oreg.), β-catenin antibody (Transduction Laboratories, Lexington, Ky.), glycogen synthase kinase-3 β (GSK-3β) (Santa Cruz Biotechnology, Inc., Santa Cruz, Calif.), or mono-phosphorylated MLC antisera (see Garcia, J. G. N. et al. (2001) J. Clin. Invest. 108:689-711) for 1 hr. After washing with PBS (3×2 min), cover slips were mounted on slides using SlowFade mounting medium (Molecular Probes). Cells were analyzed using a 60× oil objective on a Nikon Eclipse TE 300 microscope. Images were captured by Sony Digital Photo camera DKC 5000. […]
The effect of HGF on the spatial localization of polymerized actin in human endothelial monolayers was investigated by immunofluorescent microscopy. […] F-actin staining was assessed with Texas red phalloidin and myosin light chain staining evaluated with anti-monophosphorylated myosin light chain polyclonal antibody.

Test [3] concerns p42/44 ERK. The test can be described thus: p42/44 ERK activation by phospho-specific immunoblotting. The format is cell-based, human. Conditions: UO126 10 μM, 30 min; HGF 20 ng/ml, 15 min. The procedure:
Endothelial cell monolayers grown to confluence in 12-well plates and challenged with HGF were lysed with 100 μl of 2×SDS sample buffer, and cell lysates were transferred into microcentrifuge tubes and boiled for 5 min. After a brief spin, proteins from 10 μl cell lysates were separated on 12% SDS-PAGE and transferred to nitrocellulose (Schleicher & Schuell, Keene, N.H.) (30V, 18 h). After blocking with PBST (PBS with 0.1% Tween 20) containing 5% non-fat milk for 1 hr, nitrocellulose blots were reacted with primary antibodies diluted in PBST containing 5% BSA for 1 hr, washed with PBST (3×10 min), incubated with peroxidase-conjugated secondary antibodies (goat anti-rabbit IgG, 1:10,000 dilution, Sigma; or goat anti-mouse IgG, 1:10,000 dilution, Bio-Rad Labs, Richmond, Calif.) diluted in PBST with 5% non-fat milk for 1 hr and again washed with PBST (3×10 min). Finally, immunoreactive proteins were detected using ECL. The relative intensities of the protein bands were quantified by scanning densitometry.
The MAP family of kinases (ERK1/2 and p38) are actively involved in agonist-induced endothelial cell actin reorganization and barrier regulation (Verin, A. D. et al. (2000) Am. J. Physiol: Lung Cell Molec. Phys. 279:L360-L370, 2000; Garcia, J. G. N. et al. (2001) J. Clin. Invest. 108:689-711) and have been noted to participate in HGF-mediated cell activation (Liang, C. C. and Chen, H. C. (2001) J. Biol. Chem. 276:21146-21152). These reports were confirmed in human endothelial cell monolayers incubated with HGF (20 ng/ml, for 1, 2, 5, 10, 15, 20, 30, 60, or 120 min) where activation of p42/44 ERK and p38 MAPK by HGF was detected by immunoblotting with antibodies that only recognize the phosphorylated (activated) forms of ERK or p38 MAPK. The activation of ERKs was evident at 5 min, maximal after 10-15 min with a gradual decline thereafter, but remaining sustained above basal levels for more than 2 hrs. […] The onset of HGF-mediated activation of p38 MAPK was similar to ERK, with plateau at 10-15 min. However, the duration of this response was much more truncated than ERK activation, beginning to decline by 20 min and returning to basal value by 1 hr.
Background: A western blot detects proteins with antibodies after separation by electrophoresis.

The subject of test [4] is Bovine Pulmonary Artery Endothelium. Description: Transendothelial electrical resistance (TER) across bovine pulmonary artery endothelium. Type of test: cell-based. Conditions: VEGF 100 ng/ml, Sph 1-P 1 μM, HGF 20 ng/ml; for TER response in words: thrombin, 10-60 min; for changes in TER 30 min / changes in TER 60 min / changes in TER 10 min: vs vehicle control, ±SEM, thrombin 100 μM; for changes in TER 10 min: (+) increased, (−) decreased. The procedure:
as §1, with “air.” for “air. Both endothelial cell types grew to contact-inhibited monolayers with the typical cobblestone morphology (Garcia, J. G. N. et al. (1995) J. Cell. Physiol. 163:510-522; Liu, F. et al. (2001) Am. J. Respir. Cell. Mol. Biol. 24:711-719).”
Electrical resistance of EC monolayers was measured using electrical cell impedance sensor system (Applied Biophysics Inc., Troy, N.Y.) as described in Garcia, J. G. N. et al. (2000) J. Appl. Physiol. 89:2333-2343. Cells grown on gold microelectrodes (10^−3 cm^2) in polycarbonate wells act as insulating particles, and the resistance across the monolayers (transendothelial electrical resistance, or TER) is measured in real time. As cells adhere on the microelectrode and intercellular cell contacts are formed or in response to agents which increase junctional integrity, the TER increases (Garcia, J. G. N. et al. (2001) J. Clin. Invest. 108:689-711). In contrast, cell retraction, rounding, or loss of adhesion is reflected by decreases in TER (Garcia, J. G. N. et al. (2000) J. Appl. Physiol. 89:2333-2343). These measurements provide a highly sensitive biophysical assay that indicates the state of cell shape, focal adhesion, and endothelial barrier function (Giaever, I. and Keese, C. R. (1993) Nature 366:591-592; Tiruppathi, C. et al. (1992) Proc. Natl. Acad. Sci. USA 89:7919-7923). All electrical resistance data are presented as normalized values. Briefly, current was applied across the electrodes by a 4000 Hz AC voltage source with an amplitude of 1 V in series with a 1 MΩ resistance to approximate a constant current source (−1 μA). The small gold electrode and the larger counter electrode (1 cm^2) were connected to a phase-sensitive lock-in amplifier (5301A; EG&G Instruments Corp, Princeton, N.J.) with a built in differential preamplifier (5316A; EG&G Instruments Corp.). The in-phase and out-of-phase voltages between the electrodes were monitored in real time with the lock-in amplifier and converted to scalar measurements of transendothelial impedance, of which resistance was the primary focus. […] For some experiments, total TER was vectorially resolved into components reflecting resistance to current flow beneath the cell layer (α) and resistance to current flow between adjacent cells (Rb) as described in Garcia et al. (2000) supra utilizing the method of Giaiver and Keese which models the endothelial monolayer mathematically (Giaever, I. and Keese, C. R. (1993) Nature 366:591-592). Thus, changes in α reflect alterations in the net state of cell-matrix adhesion, whereas changes in Rb reflect alterations in the integrity of cell-cell adhesion. TER values from each microelectrode were pooled at discrete time points and plotted versus time as the mean±standard error of the mean (Garcia et al. (2000) supra).

As for `O=c1cc(N2CCOCC2)oc2c(-c3ccccc3)cccc12` [LY294002, reference compound], in test [1] (inhibitor pretreatment (LY294002 25 μM; Ro-31-2880 10 μM)), the “reduction of HGF-induced increase in TER” value was over 50%.

As for `C[S+]([O-])c1ccc(-c2nc(-c3ccncc3)c(-c3ccc(F)cc3)[nH]2)cc1` (stereo not shown) [SB203580, reference compound], the “effect on HGF-induced increases in TER, in words” value in test [1] is recorded as “significantly blocked”. Further, the “effect on HGF-elicited cortical actin ring formation / actin remodeling” value in test [2] is “significantly attenuated”.

On to `N#CC(=C(/N)Sc1ccccc1N)/C(C#N)=C(/N)Sc1ccccc1N` [UO126, reference compound], for which the “effect on HGF-induced increases in TER, in words” value in test [1] was “significantly blocked”. In test [3], the “effect on HGF-stimulated ERK activity” value is listed as “completely abolished”.

As for Thrombin, in test [4], the “TER response in words” value is “rapidly decreases TER values which begin to abate after 30 min”, the “changes in TER 30 min” value is given as −50 ± 4%, the “changes in TER 60 min” value is on record as −14 ± 4% and the “changes in TER 10 min” value is listed as “+30 ± 3%”.

For the molecule VEGF, in test [4], the “TER response in words” value is on record as “early increase in TER, which then falls to produce mild barrier dysfunction”; the “changes in TER 30 min” value is 0% ± 3%; the “changes in TER 60 min” value is given as −20 ± 4%; the “changes in TER 10 min” value was “+30 ± 4%”.
